Earlier results in patent publication US20210255187A1, “METHOD FOR PREDICTING THE EFFECTIVENESS OF TREATMENTS FOR CANCER PATIENTS” (University College Dublin, National University of Ireland, …, priority 2018, published 2021).

System: breast cancer cells

COc1cccc2c1C(=O)c1c(O)c3c(c(O)c1C2=O)C[C@@](O)(C(=O)CO)C[C@@H]3O[C@H]1C[C@H](N)[C@H](O)[C@H](C)O1 [doxorubicin]
AKT phosphorylation in response to doxorubicin: not changing
